Assay results from the supplement of paper PMC8253809.

Key:
SUDIPGXXI = diffuse intrinsic pontine glioma line; assay: EC50 (inflection of fitted growth-inhibition curve) (log10 M)
Outline: (§1)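 EC50 and maximal response (yFin) were derived from the lowest-AICc fit, either three- or four-parameter log-logistic. The data were pooled CellTiter-Glo luminescence values, log2-transformed and normalised per plate to % activity between negative (solvent) and positive controls. Patient-derived pHGG/DIPG cell lines and astrocyte controls on 1% Geltrex-coated 384-well plates received a 10-point threefold dilution series (mean top concentration 35 μM) by pin tool, in triplicate, for 7 days (iAstro 3 days) at 37 °C, 5% CO2.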

SUDIPGXIII = diffuse intrinsic pontine glioma line; assay: as above
Outline: as §1

HGGX6 = H3.3 G34R paediatric high-grade glioma line; assay: as above
Outline: as §1

DIPGX29 [1] = H3.3 K27M diffuse intrinsic pontine glioma line; assay: as above
Outline: as §1

HGGX39 = paediatric high-grade glioma line; assay: as above
Outline: as §1

SUDIPGIV = diffuse intrinsic pontine glioma line; assay: as above
Outline: as §1

HABS = astrocyte control; assay: as above
Outline: as §1

HGGX42 = H3.3 G34R paediatric high-grade glioma line; assay: as above
Outline: as §1

DIPGX37 = H3.3 K27M diffuse intrinsic pontine glioma line; assay: as above
Outline: as §1

SUDIPGVI [2] = diffuse intrinsic pontine glioma line; assay: as above
Outline: as §1

iAstro = astrocyte control; assay: as above
Outline: as §1

SUDIPGXVII = diffuse intrinsic pontine glioma line; assay: as above
Outline: as §1

SUDIPGXIX = diffuse intrinsic pontine glioma line; assay: as above
Outline: as §1

DIPGX9 = diffuse intrinsic pontine glioma line; assay: as above
Outline: as §1

HGGX2 = paediatric high-grade glioma line; assay: as above
Outline: as §1

DIPGX29 [3] = assay: area under dose-response curve of % growth inhibition (log2 RLU vs DMSO / staurosporine), 1e-11 to 1e-4 M (% x log10 M); higher = more growth inhibition
Outline: (§2)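 Cells were exposed in triplicate for 7 days (iAstro: 3 days) at 37 °C, 5% CO2 to a 10-point series of threefold dilutions with a mean top concentration of 35 μM. These were patient-derived pHGG/DIPG lines plus astrocytes, grown on 384-well plates coated with 1% Geltrex. Readout was CellTiter-Glo luminescence, log2-transformed and set per plate to % activity between solvent and positive controls, from which area under the curve was derived by trapezoid rule on a log-logistic fit or, failing that, a smoothing spline.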

SUDIPGVI [4] = assay: as above
Outline: as §2

DIPGX7 = H3.3 K27M diffuse intrinsic pontine glioma line; assay: EC50 (inflection of fitted growth-inhibition curve) (log10 M)
Outline: as §1

Compound | EC50 (log10 M) (SUDIPGXXI) | EC50 (log10 M) (SUDIPGXIII) | EC50 (log10 M) (HGGX6) | EC50 (log10 M) (DIPGX29 [1]) | EC50 (log10 M) (HGGX39) | EC50 (log10 M) (SUDIPGIV) | EC50 (log10 M) (HABS) | EC50 (log10 M) (HGGX42) | EC50 (log10 M) (DIPGX37) | EC50 (log10 M) (SUDIPGVI [2]) | EC50 (log10 M) (iAstro) | EC50 (log10 M) (SUDIPGXVII) | EC50 (log10 M) (SUDIPGXIX) | EC50 (log10 M) (DIPGX9) | EC50 (log10 M) (HGGX2) | area under dose-response curve (DIPGX29 [3]) | area under dose-response curve (SUDIPGVI [4]) | EC50 (log10 M) (DIPGX7)
C=CCNC1=C2C[C@@H](C)C[C@H](OC)[C@H](O)[C@@H](C)/C=C(\C)[C@H](OC(N)=O)[C@@H](OC)/C=C\C=C(/C)C(=O)NC(=CC1=O)C2=O [TANESPIMYCIN] | -5.76 | -4.95 | -5.84 | -5.85 | -6.48 | -5.88 | -5.41 | -6.01 | -6.99 | -5.19 | -5.41 | -4.99 | -6.32 | -6.85 | -4.97 | 132 | 42.2 | 
COc1cc(F)ccc1-c1ncnc(Nc2cccc(CS(C)(=N)=O)c2)n1 (stereo not given) | -5.99 | -4.98 | -5.44 | -5.41 | -5.23 | -5.38 | -5.83 | -6.01 | -5.68 | -5.33 | -6.51 | -5.15 | -5.55 | -5.9 | -5.75 | 109 | 120 | -5.15
CC(C)C[C@H](NC(=O)[C@H](CCc1ccccc1)NC(=O)CN1CCOCC1)C(=O)N[C@@H](Cc1ccccc1)C(=O)N[C@@H](CC(C)C)C(=O)[C@@]1(C)CO1 [CARFILZOMIB] |  | -5.36 | -6.37 | -5.73 | -6.2 | -7.24 | -6.6 | -6.77 | -6.68 | -6.71 | -8.68 | -6.36 | -6.53 | -7 | -7.54 | 171 | 259 | -7.29
COC1=CC(c2cc3ccccc3[nH]2)=N/C1=C\c1[nH]c(C)cc1C [OBATOCLAX] | -5.64 | -4.99 | -5.1 | -5.01 | -5.02 | -5 | -5.01 | -5.63 | -5.01 | -5.71 | -5.45 | -5 | -5.51 | -5.05 | -5.97 | 174 | 210 | -5.53
COc1ccc(C[C@H](NC(=O)[C@H](C)NC(=O)CN2CCOCC2)C(=O)N[C@@H](Cc2ccccc2)C(=O)C2(C)CO2)cc1 (stereo in doubt) [ONX-0914] | -7.49 | -6.56 | -5.97 | -6.14 | -6.36 | -6.84 | -6.19 | -6.73 | -6.53 | -6.72 | -7.31 | -5.91 | -6.58 | -6.6 | -7.17 | 156 | 233 | -6.25
COc1cccc2c1C(=O)c1c(O)c3c(c(O)c1C2=O)C[C@@](O)(C(=O)CO)C[C@@H]3O[C@H]1C[C@H](N)[C@H](O)[C@H](C)O1 [DOXORUBICIN] | -8.4 | -5.71 | -5.69 | -5.63 | -5.68 | -6.59 | -7.02 | -6.5 | -6.4 | -5.86 | -7.21 | -5.78 | -7.02 | -6.92 | -6.74 | 169 | 159 | -6.06
OC1(c2ccc(Cl)c(C(F)(F)F)c2)CCN(CCCC(c2ccc(F)cc2)c2ccc(F)cc2)CC1 [PENFLURIDOL] | -5.9 | -5.21 | -5.23 | -5.43 | -5.24 | -5.56 | -4.88 | -5.63 | -5.35 | -5.28 | -5.63 | -5.21 | -5.53 | -5.4 | -5.63 | 135 | 126 | -5.6
CN(C)C/C=C/C(=O)Nc1cc2c(Nc3ccc(F)c(Cl)c3)ncnc2cc1O[C@H]1CCOC1 [AFATINIB] | -5.4 | -4.71 | -4.75 | -4.73 | -4.73 | -4.82 | -4.84 | -4.86 | -4.72 | -4.84 | -4.88 | -4.81 | -4.83 | -4.88 | -4.92 | 110 | 130 | -4.85
CN1[C@@H]2CC[C@H]1C[C@@H](OC(=O)c1cc(Cl)cc(Cl)c1)C2 [BEMESETRON] | -5.63 |  | -4.86 | -5.09 | -5.05 | -4.99 | -4.73 | -5.38 | -5.32 |  | -5.08 | -4.9 | -4.85 | -4.9 | -4.99 | 101 | 15.4 | -5.23
C[C@@]12OC(=O)[C@]1([C@@H](O)[C@@H]1C=CCCC1)NC(=O)[C@@H]2CCCl [MARIZOMIB] | -7.88 | -6.99 | -6.1 | -7.05 | -6.39 | -7.41 | -6.2 | -6.62 | -6.54 | -7.2 | -8.18 | -6.26 | -6.19 | -6.99 | -7.46 | 100 | 331 | -6.48
C[C@@H](Oc1cc(-c2cnn(C3CCNCC3)c2)cnc1N)c1c(Cl)ccc(F)c1Cl [CRIZOTINIB] | -5.77 | -4.81 | -4.67 | -4.83 | -4.69 | -4.85 | -4.84 | -5.15 | -4.84 | -5.01 | -4.89 | -4.9 | -5.23 | -5.11 | -5.11 | 87.6 | 112 | -4.88
CC(C)C[C@H](NC(=O)CNC(=O)c1cc(Cl)ccc1Cl)B(O)O [IXAZOMIB] | -7.9 | -7.52 | -7.27 | -6.63 | -7.57 | -7.6 | -7.43 | -7.31 | -7.94 | -7.33 | -7.92 | -7.05 | -7.71 | -7.68 | -6.73 | 210 | 242 | -7.71
c1ccc2c(-c3cnn4cc(-c5ccc(N6CCNCC6)cc5)cnc34)ccnc2c1 | -6.41 | -5.56 | -5.58 | -5.73 | -5.65 | -5.52 | -5.19 | -5.68 | -5.65 | -5.58 | -5.51 | -5.61 | -5.66 | -5.68 | -5.78 | 165 | 166 | -5.63
O=C(Nc1ccc(Nc2nccc(Nc3cc(C4CCCC4)[nH]n3)n2)cc1)Nc1cccc(C(F)(F)F)c1 [CD532] | -7.24 | -6.36 | -6.3 | -6.34 | -5.92 | -6.47 | -5.37 | -6.66 | -6.42 | -6.5 | -6.36 | -6.47 | -6.52 | -6.65 | -6.21 | 221 | 272 | -6.51
CC(=O)OC[C@H]1O[C@@H]([S-])[C@H](OC(C)=O)[C@@H](OC(C)=O)[C@@H]1OC(C)=O.CCP(CC)CC.[Au+] [AURANOFIN] | -6.66 | -5.39 | -6.35 | -6.49 | -5.52 | -5.57 | -5.29 | -6.16 | -6.41 | -5.76 | -5.84 | -5.45 | -5.93 | -5.78 | -6.28 | 232 | 202 | -5.9
CN(C)C/C=C/C(=O)Nc1ccc(C(=O)Nc2cccc(Nc3ncc(Cl)c(-c4c[nH]c5ccccc45)n3)c2)cc1 [THZ1] | -8.32 | -7.62 | -7.28 | -7.44 | -7.15 | -7.91 | -6.72 | -7.25 | -7.71 | -8.04 | -5.76 | -7.78 | -8.07 | -8.19 | -7.58 | 301 | 345 | -8.02
C=CCn1c(=O)c2cnc(Nc3ccc(N4CCN(C)CC4)cc3)nc2n1-c1cccc(C(C)(C)O)n1 [MK-1775] | -6.07 |  | -5.72 | -6.91 | -5.05 | -5.92 | -5.41 | -5.45 | -6.2 |  | -6.04 | -5.54 | -6.03 | -5.33 | -6.67 | 114 | 27.9 | -5.75
Cc1noc2c1-c1ccccc1C(c1ccc(Cl)cc1)=N[C@H]2CC(N)=O [CPI-0610] | -6.13 |  | -5.43 | -5.05 | -4.96 | -5.51 | -5.3 | -5.3 |  | -5.11 | -5.98 | -5.39 | -5.17 | -5.71 | -5.42 | 99.5 | 121 | -4.88
CCOc1cc(C(C)(C)C)ccc1C1=N[C@@](C)(c2ccc(Cl)cc2)[C@@](C)(c2ccc(Cl)cc2)N1C(=O)N1CCN(CCCS(C)(=O)=O)CC1 [RG7112] | -6.49 | -4.75 | -4.71 | -4.8 | -4.85 | -4.86 | -5.4 | -4.64 |  | -4.87 | -4.85 | -4.8 | -5.56 | -5.7 | -4.78 | 85.4 | 30.5 | -4.82
COCC1(CO)C(=O)C2CCN1CC2 (stereo not given) [APR-246] | -5.41 | -4.77 | -4.81 | -4.85 |  | -4.81 |  | -4.72 | -4.79 | -4.72 | -4.91 | -4.81 | -4.78 | -4.82 | -4.71 | 90.6 | 72.7 | -4.79
COc1ncc(-c2ccc3nccc(-c4ccnnc4)c3c2)cc1NS(=O)(=O)c1ccc(F)cc1F [OMIPALISIB] | -7.11 | -5.65 | -4.77 | -5.88 | -5.79 | -6.11 | -6.58 | -6.22 | -6.38 | -6.23 | -5.44 | -6.19 | -7 | -7.52 | -6 | 219 | 257 | 
CCN1CCN(Cc2ccc(Nc3ncc(F)c(-c4cc(F)c5nc(C)n(C(C)C)c5c4)n3)nc2)CC1 [ABEMACICLIB] | -6.6 | -6.07 | -5.83 | -6.78 | -6.29 | -6.04 |  | -6.74 | -6.56 | -6.09 | -6.74 | -6.01 | -6.26 | -6.86 | -6.84 | 107 | 102 | -6.11
CCCc1cc(C)[nH]c(=O)c1CNC(=O)c1cc(-c2ccnc(N3CCN(C)CC3)c2)cc2c1cnn2C(C)C [GSK343] | -4.81 | -4.57 | -4.6 | -4.6 | -4.59 | -4.69 | -4.81 | -4.7 | -4.59 | -4.59 | -4.88 |  | -4.69 | -4.74 | -4.78 | 78.7 | 66.2 | -4.63
